According to patent US10654834B2 (Venenum Biodesign, LLC, priority 2016, dated 2020):
pEC50: −log10 of the molar value.

Tests used:
[1] = Pharmacokinetic profile in mice after oral gavage; type: in vivo, mouse; conditions: mouse; fasted male Hilltop mice, 10 mg/kg oral gavage, plasma; read-out: Cmax
Protocol: Pharmacokinetic Profile in Mice
In this series of studies, the pharmacokinetic profile characteristics of compounds of the present invention were evaluated. The plasma concentration levels of the compounds were monitored in the blood stream (i.e., plasma) after oral gavage using Cmax, and area under the curve (AUC).
8 week old male Hilltop mice were fasted overnight. Animals were randomized into groups (n=9) by body weight. Mice were dosed with 10 mg/kg compound (in 20% PEG400/80% 0.5% carboxymethylcellulose (medium viscosity)+0.25% Tween-80) at a volume of […] through oral gavage. Blood was collected via orbital bleeding at 0, 0.25, 0.5, 1, 2, and 4 h post-dose, with no one mouse having more than 3 blood draws. Blood was collected in EDTA coated tubes. Samples were stored at −20° C. until analysis.
Quantitation of compound levels in plasma was accomplished by LC-MS/MS analysis. Standard curve and quality control samples were prepared in male CD-1 mouse plasma containing EDTA K^2+ as an anticoagulant at final concentrations ranging from 500 to 0.1 ng/mL. The plasma samples, calibration curve standards, and quality control samples were prepared in an identical method in a 96-well deep plate (1 mL) with a quenching solution (1:1 mixed acetonitrile:methanol containing the internal standard Reserpine @ 400 ng/mL). Low volume samples were supplemented with CD-1 mouse plasma. The plate was mixed on multi-tube vortexer for 1 min and centrifuged at 4000 rpm for 30 min at 4° C. (Sorvall® Super T21) before LC-MS/MS analysis. LC conditions were developed and optimized based on each compound as needed. The outlet of the column was coupled to AB Sciex 4000 QTrap Mass Spectrometer (AB Sciex, Brugg Switzerland). Detection was carried out using multiple reaction monitoring mode with positive-ion detection focusing. The pharmacokinetic parameters were derived from the plasma-time data and calculated using the standard non-compartmental method with WinNonlin (Pharsight, Mountain View, Calif.) or PK Solver (Comp. Meth. Prog. Biomed. (2010), 99, 306-314).
Values reported are the mean plasma concentration of three mice. […]

human TGR5 receptor = molecular target: T1, human TGR5 receptor (Homo sapiens, UniProt Q8TDU6); assay: Human TGR5 cAMP production assay (hTGR5-CHO cells, DiscoveRx cAMP XS+ kit); type: cell-based; conditions: luminescent cAMP assay, read-out: Human TGR5 Lum. cAMP Activity (EC50)
T1 construct: host or cells: CHO-K1 (hTGR5-CHO)
T1 sequence (Q8TDU6 1-330): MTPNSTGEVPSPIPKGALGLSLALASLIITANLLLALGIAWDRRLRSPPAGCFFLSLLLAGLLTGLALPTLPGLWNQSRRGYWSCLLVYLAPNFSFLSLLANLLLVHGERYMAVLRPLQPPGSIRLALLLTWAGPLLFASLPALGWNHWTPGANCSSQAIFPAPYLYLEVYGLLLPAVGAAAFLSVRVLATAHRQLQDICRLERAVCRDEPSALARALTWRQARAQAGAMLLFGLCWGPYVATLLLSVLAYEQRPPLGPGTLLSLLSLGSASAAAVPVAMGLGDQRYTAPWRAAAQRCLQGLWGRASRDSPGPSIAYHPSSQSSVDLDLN
How it was run: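 CHO-K1 cells stably expressing hTGR5, in PBS with IBMX and cAMP antibody, treated with half-log compound dilutions for 1 h at room temperature. cAMP measured by enzyme-fragment complementation luminescence after overnight detection; EC50 values reported.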

mouse TGR5 receptor = molecular target: T2, mouse TGR5 receptor (Mus musculus, UniProt Q80SS6); assay: Mouse TGR5 HTRF cAMP production assay (HEK293-EBNA cells, Cisbio cAMP HiRange kit); type: cell-based; conditions: HEK293-EBNA cells overexpressing mouse TGR5, HTRF cAMP assay
T2 construct: host or cells: HEK293-EBNA (293 c18, ATCC CRL10852)
T2 sequence (Q80SS6 1-329): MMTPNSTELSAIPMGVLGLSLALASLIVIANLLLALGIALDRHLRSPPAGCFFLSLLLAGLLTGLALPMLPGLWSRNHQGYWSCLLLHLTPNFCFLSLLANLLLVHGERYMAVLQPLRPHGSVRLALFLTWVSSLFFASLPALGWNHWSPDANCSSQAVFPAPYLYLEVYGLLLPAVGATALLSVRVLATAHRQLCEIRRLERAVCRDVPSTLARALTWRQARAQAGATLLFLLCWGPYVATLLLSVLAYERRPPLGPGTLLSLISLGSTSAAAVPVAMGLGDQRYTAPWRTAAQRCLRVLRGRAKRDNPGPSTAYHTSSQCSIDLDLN
How it was run: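 HEK293-EBNA cells stably expressing mouse TGR5 (episomal vector) were suspended in serum-free DMEM with 500 μM IBMX and exposed to 12-point half-log compound dilutions for 1 h at room temperature. cAMP was detected by HTRF (d2-cAMP/anti-cAMP cryptate, 1 h, room temperature), giving EC50 from duplicates.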

Compound | Cmax [1] | pEC50 (human TGR5 receptor) | pEC50 (mouse TGR5 receptor)
O=C(CCCC1CCN(c2cc(N3CCC[C@H]3C(=O)NCCc3ccc(C(F)(F)F)cc3)nc(C(F)(F)F)n2)CC1)NCCNc1ncnc2[nH]cnc12 [Compound 95, (S)-1-(6-(4-(4-((2-((9H-purin-6-yl)amino)ethyl)amino)-4-oxobutyl)piperidin-1-yl)-2-(trifluoromethyl)pyrimidin-4-yl)-N-(4-(trifluoromethyl)phenethyl)pyrrolidine-2-carboxamide] | 2 ng/mL | > 7.00 | > 7.00
N#Cc1ccc(CCNC(=O)[C@@H]2CCCN2c2cc(N3CCC(CCCC(=O)NCCNc4ncc(C(=O)O)cn4)CC3)nc(C(F)(F)F)n2)cc1 [Compound 98, (S)-2-((2-(4-(1-(6-(2-((4-cyanophenethyl)carbamoyl)pyrrolidin-1-yl)-2-(trifluoromethyl)pyrimidin-4-yl)piperidin-4-yl)butanamido)ethyl)-amino)pyrimidine-5-carboxylic acid] | 12 ng/mL | > 7.00 | > 7.00
C[N+](C)(C)CCC[C@H](NC(=O)CCCC1CCN(c2cc(N3CCC[C@H]3C(=O)NCCc3ccc(C#N)cc3)nc(C(F)(F)F)n2)CC1)C(=O)O [Compound 105, (S)-4-carboxy-4-(4-(1-(6-((S)-2-((4-cyanophenethyl)carbamoyl)pyrrolidin-1-yl)-2-(trifluoromethyl)pyrimidin-4-yl)piperidin-4-yl)butanamido)-N,N,N-trimethylbutan-1-aminium] | 51 ng/mL | > 7.00 | > 7.00
O=C(CCCC1CCN(c2cc(N3CCC[C@H]3C(=O)NCCc3ccc(C(F)(F)F)cc3)nc(C(F)(F)F)n2)CC1)NCCNc1cc(N(CCO)CCO)ncn1 [Compound 111] | 5.3 ng/mL | > 7.00 | > 7.00
N#Cc1ccc(CCNC(=O)[C@@H]2CCCN2c2cc(N3CCC(CCNS(=O)(=O)CCN)CC3)nc(C(F)(F)F)n2)cc1 [Compound 116, (S)-1-(6-(4-(2-(2-aminoethylsulfonamido)ethyl)piperidin-1-yl)-2-(trifluoromethyl)-pyrimidin-4-yl)-N-(4-cyanophenethyl)pyrrolidine-2-carboxamide] | 15 ng/mL | > 7.00 | > 7.00
N#Cc1ccc(CCNC(=O)[C@@H]2CCCN2c2cc(N3CCC(CCNS(=O)(=O)CCNc4ncc(C(=O)O)cn4)CC3)nc(C(F)(F)F)n2)cc1 [Compound 117, (S)-2-((2-(N-(2-(1-(6-(2-((4-cyanophenethyl)carbamoyl)pyrrolidin-1-yl)-2-(trifluoromethyl)pyrimidin-4-yl)piperidin-4-yl)ethyl)sulfamoyl)ethyl)amino)-pyrimidine-5-carboxylic acid] | 6.5 ng/mL | > 7.00 | > 7.00
N#Cc1ccc(CCNC(=O)[C@@H]2CCCN2c2cc(N3CCC(CCCNC(=O)NCS(=O)(=O)O)CC3)nc(C(F)(F)F)n2)cc1 [Compound 118, (S)-(3-(3-(1-(6-(2-((4-cyanophenethyl)carbamoyl)pyrrolidin-1-yl)-2-(trifluoromethyl)pyrimidin-4-yl)piperidin-4-yl)propyl)ureido)methanesulfonic acid] | 7.9 ng/mL | > 7.00 | > 7.00
N#Cc1ccc(CCNC(=O)[C@@H]2CCCN2c2cc(N3CCC(CCCNC(=O)NCCS(=O)(=O)O)CC3)nc(C(F)(F)F)n2)cc1 [Compound 119, (S)-2-(3-(3-(1-(6-(2-((4-cyanophenethyl)carbamoyl)pyrrolidin-1-yl)-2-(trifluoromethyl)pyrimidin-4-yl)piperidin-4-yl)propyl)ureido)-ethanesulfonic acid] | 16 ng/mL | > 7.00 | > 7.00
N#Cc1ccc(CCNC(=O)[C@@H]2CCCN2c2cc(N3CCC(CCCC(=O)NCCOCCOCCNC(=N)N)CC3)nc(C(F)(F)F)n2)cc1 [Compound 127, (S)-1-(6-(4-(1-amino-1-imino-12-oxo-5,8-dioxa-2,11-diazapentadecan-15-yl)piperidin-1-yl)-2-(trifluoromethyl)-pyrimidin-4-yl)-N-(4-cyanophenethyl)-pyrrolidine-2-carboxamide] | 11 ng/mL | > 7.00 | > 7.00
N=C(N)NCCNC(=O)CCCC1CCN(c2cc(N3CCC[C@H]3C(=O)NCCc3ccc(C(F)(F)F)cc3)nc(C(F)(F)F)n2)CC1 [Compound 131, (S)-1-(6-(4-(4-((2-guanidinoethyl)-amino)-4-oxobutyl)piperidin-1-yl)-2-(trifluoromethyl)pyrimidin-4-yl)-N-(4-(trifluoromethyl)phenethyl)pyrrolidine-2-carboxamide] | 12 ng/mL | > 7.00 | > 7.00
O=C(CCCC1CCN(c2cc(N3CCC[C@H]3C(=O)NCCc3ccc(Cl)c(Cl)c3)nc(C(F)(F)F)n2)CC1)NCS(=O)(=O)O [Compound 136, (S)-(4-(1-(6-(2-((3,4-dichlorophenethyl)carbamoyl)pyrrolidin-1-yl)-2-(trifluoromethyl)pyrimidin-4-yl)piperidin-4-yl)butanamido)methanesulfonic acid] | 59 ng/mL | > 7.00 | > 7.00
O=C(CCCC1CCN(c2cc(N3CCC[C@H]3C(=O)NCCc3ccc(Cl)cc3)nc(C(F)(F)F)n2)CC1)NCS(=O)(=O)O [Compound 137, (S)-(4-(1-(6-(2-((4-chlorophenethyl)-carbamoyl)pyrrolidin-1-yl)-2-(trifluoromethyl)pyrimidin-4-yl)-piperidin-4-yl)butanamido)-methanesulfonic acid] | 22 ng/mL | > 7.00 | > 7.00
O=C(CCCC1CCN(c2cc(N3CCC[C@H]3C(=O)NCCc3cccc(Cl)c3Cl)nc(C(F)(F)F)n2)CC1)NCS(=O)(=O)O [Compound 138, (S)-(4-(1-(6-(2-((2,3-dichlorophenethyl)carbamoyl)pyrrolidin-1-yl)-2-(trifluoromethyl)pyrimidin-4-yl)piperidin-4-yl)butanamido)-methanesulfonic acid] | 69 ng/mL | > 7.00 | > 7.00
O=C(CCCC1CCN(c2cc(N3CC[C@H]3C(=O)NCCc3ccc(C(F)(F)F)cc3)nc(C(F)(F)F)n2)CC1)NCS(=O)(=O)O [Compound 255, (S)-(4-(1-(2-(trifluoromethyl)-6-(2-((4-(trifluoromethyl)phenethyl)carbamoyl)azetidin-1-yl)pyrimidin-4-yl)piperidin-4-yl)butanamido)methanesulfonic acid] | 64 ng/mL | > 7.00 | > 7.00
N=C(N)NCCC[C@H](NC(=O)CCC1CCN(c2cc(N3CC[C@H]3C(=O)NCCc3ccc(C(F)(F)F)cc3)nc(C(F)(F)F)n2)CC1)C(=O)O [Compound 258, (S)-5-guanidino-2-(3-(1-(2-(trifluoromethyl)-6-((S)-2-((4-(trifluoromethyl)phenethyl)carbamoyl)azetidin-1-yl)pyrimidin-4-yl)piperidin-4-yl)propanamido)pentanoic acid] | 42 ng/mL | > 7.00 | > 7.00
